Assay [1] addresses T1, ASIC1a (Homo sapiens, UniProt P78348).
T1 construct: expressed in transfected cells
T1 sequence (P78348 1-528): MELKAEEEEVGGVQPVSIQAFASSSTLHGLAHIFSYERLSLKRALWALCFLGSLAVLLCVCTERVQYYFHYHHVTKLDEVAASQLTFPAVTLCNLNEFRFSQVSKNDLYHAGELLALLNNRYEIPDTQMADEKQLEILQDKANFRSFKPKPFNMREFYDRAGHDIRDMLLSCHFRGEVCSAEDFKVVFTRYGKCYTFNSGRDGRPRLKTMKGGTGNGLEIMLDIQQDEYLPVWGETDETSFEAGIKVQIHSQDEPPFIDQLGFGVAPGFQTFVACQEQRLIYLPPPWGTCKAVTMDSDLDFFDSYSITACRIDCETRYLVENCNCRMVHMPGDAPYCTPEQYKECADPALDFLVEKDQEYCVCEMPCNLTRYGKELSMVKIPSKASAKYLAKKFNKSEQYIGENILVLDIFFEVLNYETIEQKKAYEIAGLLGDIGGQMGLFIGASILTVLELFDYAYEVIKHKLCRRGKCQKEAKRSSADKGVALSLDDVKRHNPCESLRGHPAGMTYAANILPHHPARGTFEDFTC
In words: Patch clamp whole-cell recording of acid-induced hASIC1a currents. Format: cell-based. As to conditions: 30 μM amiloride, positive control; pH 7.4 to pH 6.0; read-out: inhibition of the acid-induced ASIC1a currents. Here is the method:
FIGS. 4A-4E show the effect of affinity-matured ASC06-IgG1 derivative antibodies on the hASIC1a currents. Shown are the representative current traces recorded from single CHO-K1 cells stably expressing hASIC1a in the absence or presence of 100 nM ASC06-IgG1 (FIG. 4A) or affinity-matured ASC06-IgG1 versions ASC06-01-IgG1 (FIG. 4B), ASC06-02-IgG1 (FIG. 4C), ASC06-03-IgG1 (FIG. 4D), or ASC06-04-IgG1 (FIG. 4E). Amiloride (30 μM) was used as a positive control. “Wash” represents the recovery of the current after the treatment of 100 nM indicated antibody followed by 15 min infusion of washing solution.
Whether the affinity-matured ASC06-IgG1 derivative antibodies have an effect on the acid-induced, hASIC1a-mediated electrical current in cells was tested. An hASIC1a overexpressing stable cell line was used as a model for these studies. Extracellular pH was decreased from pH 7.4 to pH 6.0 and the amplitudes of the hASIC1a-mediated inward currents were recorded in the whole-cell recording mode in the presence of the affinity-matured ASC06-IgG1 derivative antibodies (FIGS. 4A-4E). The ASIC1a inhibitor amiloride (30 μM) was used as a positive control for the inhibition of ASIC1a currents.
Background: In patch-clamp work, channel activity is measured electrically.

The target of assay [2] is T2, hASIC1a on CHO-K1 cells stably expressing hASIC1a (human, UniProt P78348 1-528).
T2 sequence (looked up): T1 sequence (P78348 1-528)
In words: cell-based or functional assay.

For the molecule `N=C(N)NC(=O)c1nc(Cl)c(N)nc1N` [amiloride, reference compound], the inhibition at 30 µM in assay [1] was greater than 50%.

B1: ASC06-05-IgG1 (antibody, V domains shown)
VH: QVQLQQSGGGLVQPGGSLRLSCAASGFTFSSYAMSWVRQAPGKGLEWVSAISGSGGSTYYADSVKGRFTISRDNSKNTLYLQMNSLRAEDTAVYYCAKDSYFGRAKGSWGQGTLVTVSS
VL: QSALTQPASVSGSPGQSITISCTGTSSDVGAYNYVSWYQQQPGKAPKLMIYGVSNRPSGVSNRFSGSKSGNAASLTISGLQAEDEADYYCSSYTSSSTYVFGTGTKLTVLG
For B1, the “IC50 for the inhibition of ASIC1a currents, FMP assay” value in assay [2] turned out to be 31 nM.

The inhibition is the percentage by which the read-out fell short of the control.

Source of the values: patent publication US20230174642A1, “AFFINITY-MATURATED ANTI-ASIC1a ANTIBODIES” (SHANGHAITECH UNIVERSITY, priority 2019, published 2023).
